In patent US8058395B2, “Chimeric protein comprising a green fluorescent ptotein fused to a transcription factor” (The United States of America as represented by the …, priority 1995, dated 2011):

Legend:
[1] = tested on: GFP-ER (human estrogen receptor); assay: Ligand effect on nuclear localization of GFP-ER in MCF7 cells; type: cell-based; settings: GFP-ER already partially activated by medium
Procedure: GFP-fusion plasmids of the invention are tested for expression and subcellular localization by transfection into several mammalian cells. For example, GFP-GR plasmids were analyzed in C127 (mouse) cells, HeLa (human cervical cancer) cells, and MCF7 (human breast adenocarcinoma) cells (ATCC accession number HTB22). GFP-ER plasmids were analyzed in 1471.1 cells, C127 (mouse) cells, MCF7 (human breast adenocarcinoma) cells, and MDA-MB-231 (human breast adenocarcinoma) cells (ATCC accession number HTB 26). Localization is observed in the absence of added hormone in either-5% or 10% charcoal-stripped fetal calf serum. Cells having GFP-fusion plasmids are then treated with a selected ligand, and subcellular localization and quantitative observations are made.
Assay for Ligand Effects: GFP-fusion plasmids of the invention are assayed for effects of a selected ligand on subcellular localization by transfection into selected cells. C127 (mouse) cells, HeLa (human cervical cancer) cells, and MCF7 (human breast adenocarcinoma) cells (ATCC accession number HTB22) were each transfected with GFP-GR plasmids and with GFP-ER plasmids. Localization is first observed in the absence of added hormone in either 5% or 10% charcoal-stripped fetal calf serum. Cells having GFP-fusion plasmids are then treated with a selected ligand, and subcellular localization and quantitative observations are made. […]

[2] = tested on: GR; settings: cited from earlier work

C[C@]12CC[C@@H]3c4ccc(O)cc4CC[C@H]3[C@@H]1CC[C@@H]2O [17-β-estradiol]
nuclear GFP-ER signal after addition of agonist [1]: further concentration of nuclear signals on nuclear structures | affinity for GR [2]: no affinity
